These results are taken from US20140045856A1, “4-Methyl-2,3,5,9,9b-pentaaza-cyclopenta[a]naphthalenes” (BOEHRINGER INGELHEIM INTERNATIONAL GMBH, priority 2012, published 2014).

As usually defined, the IC50 is the concentration that inhibits the measured activity by half. A word on the half-life: it is the time in which the quantity being followed falls by half.

One series concerns the target PDE2A (Homo sapiens, UniProt O00408). The series is described as follows: PDE 2A assay with fluorescent substrate (IMAP, fluorescence polarization). The series is classed as biochemical. As to conditions: read-out: PDE2 IC50.
The next series addresses PDE10 (Homo sapiens, UniProt Q9Y233). As to the kind of experiment: PDE10 assay with fluorescent substrate (IMAP, fluorescence polarization). Format: biochemical. (In fluorescence polarisation assays a small probe gives low polarisation when free and higher when bound to something large.)
A short description of series [1]: Metabolic stability in pooled liver microsomes. The series is classed as in vitro ADME. As to conditions: human liver microsomes, 37° C., 1 mg/mL microsomal protein, test compound 1 μM, NADPH; for half-life at 1 μM: pooled liver microsomes, pH 7.6, read-out: Half-life - t½. As for the experimental part:
The metabolic stability of the compounds according to the invention has been investigated as follows:
The metabolic degradation of the test compound was assayed at 37° C. with pooled liver microsomes from various species. The final incubation volume of 100 μl per time point contains TRIS buffer pH 7.6 at room temperature (0.1 M), magnesium chloride (5 mM), microsomal protein (1 mg/mL for human and dog, 0.5 mg/mL for other species) and the test compound at a final concentration of 1 μM. Following a short preincubation period at 37° C., the reactions were initiated by addition of betanicotinamide adenine dinucleotide phosphate, reduced form (NADPH, 1 mM), and terminated by transferring an aliquot into solvent after different time points. […] The half-life was determined by the slope of the semi-logarithmic plot of the concentration-time profile.

Another series deals with hERG channel (Homo sapiens, UniProt Q12809). The series is described as follows: hERG channel assay (whole-cell patch clamp, HEK293 cells transfected with hERG cDNA). Format: cell-based. The note with it: 35° C. The source says:
hERG (Human Ether-à-Go-Go-Related Gene)-Channel Assay
hERG channel inhibition of compounds of the present invention has been investigated as follows:
HEK (human embryonic kidney) 293 cells were stably transfected with hERG cDNA. Cells were superfused with a bath solution containing (mM): NaCl (137), KCl (4.0), MgCl2 (1.0), CaCl2 (1.8), Glucose (10), HEPES (10), pH 7.4 with NaOH. Patch pipettes were made from borosilicate glass tubing using a horizontal puller and filled with pipette solution containing (mM): K-aspartate (130), MgCl2 (5.0), EGTA (5.0), K2ATP (4.0), HEPES (10.0), pH 7.2 with KOH. Resistance of the microelectrodes was in the range between 2 and 5 MΩ.
Stimulation and Recording:
Membrane currents were recorded using an EPC-10 patch clamp amplifier and PatchMaster software. hERG-mediated membrane currents were recorded at 35° C., using the whole-cell configuration of the patch-clamp technique. Transfected HEK293 cells were clamped at a holding potential of −60 mV and hERG-mediated inactivating tail currents were elicited using a pulse pattern with fixed amplitudes (activation/inactivation: 40 mV for 2000 ms; recovery: […]; ramp to 40 mV in 2 ms; inactivating tail current: 40 mV for 50 ms) repeated at 15 s intervals. During each inter-pulse interval 4 pulses scaled down by a factor of 0.2 were recorded for a P/n leak subtraction procedure. […] compensation was employed up to a level that safely allowed recording devoid of ringing.
Compound Preparation and Application:
The different concentrations of the test compound were applied sequentially on each of the different cells investigated. A steady state level of baseline current was measured for at least 6 sweeps prior to the application of the first test compound concentration.
The test compound was dissolved in DMSO to yield a master stock solution which was diluted further in DMSO to stock solutions needed for the lower concentrations. Final dilutions in extracellular buffer were prepared freshly from these stocks by a 1:1000 dilution step each before starting the experiments.
Data analysis and IC50 determination:
Peak current amplitudes were measured 3 ms after the ramp to +40 mV. For baseline and each concentration the peak currents of the three last sweeps before application of the next concentration were averaged. Residual currents ( 1/10) were calculated for each cell as the fraction of actual average peak current and average baseline peak current.
The logistic concentration-response curve of the following form was fitted to the residual current data using a genetic algorithm:
C: actual concentration of compound (in μM) IC50: half-inhibitory concentration (in μM) p: Hill slope

Series [2] in a line: Animal experiments and sample analysis: plasma, brain and CSF concentration. The note with it: rat; for concentration at 0.5 h / Kp at 0.5 h: 0.5 h between administration and CSF sampling; for concentration at 0.5 h / concentration at 2 h: doses of 10.0 or 5 μmol/kg; for concentration at 2 h / Kp at 2 h: 2 h between administration and CSF sampling. The series is classed as in vivo.
Experimental: Test compounds were administered to animals (rat) different routes at doses of 10.0 or 5 μmol/kg, (both oral and intravenous). After compound administration, the animals were sacrificed in a CO2 chamber and CSF samples were carefully collected by puncture of the cisterna magna. Immediately after CSF sampling, blood was taken by heart puncture and brains were dissected out. Blood was collected in EDTA-coated microvettes and plasma was prepared by centrifugation. Concentration of the test compounds in plasma, CSF or brain homogenate was determined using HPLC-MS-MS.

Setting [3] is: brain, read-out: c(brain)/c(plasma).

Where two headings read alike, the source gives them in different places.

Sequence of PDE10 (Q9Y233 whole entry, species assumed): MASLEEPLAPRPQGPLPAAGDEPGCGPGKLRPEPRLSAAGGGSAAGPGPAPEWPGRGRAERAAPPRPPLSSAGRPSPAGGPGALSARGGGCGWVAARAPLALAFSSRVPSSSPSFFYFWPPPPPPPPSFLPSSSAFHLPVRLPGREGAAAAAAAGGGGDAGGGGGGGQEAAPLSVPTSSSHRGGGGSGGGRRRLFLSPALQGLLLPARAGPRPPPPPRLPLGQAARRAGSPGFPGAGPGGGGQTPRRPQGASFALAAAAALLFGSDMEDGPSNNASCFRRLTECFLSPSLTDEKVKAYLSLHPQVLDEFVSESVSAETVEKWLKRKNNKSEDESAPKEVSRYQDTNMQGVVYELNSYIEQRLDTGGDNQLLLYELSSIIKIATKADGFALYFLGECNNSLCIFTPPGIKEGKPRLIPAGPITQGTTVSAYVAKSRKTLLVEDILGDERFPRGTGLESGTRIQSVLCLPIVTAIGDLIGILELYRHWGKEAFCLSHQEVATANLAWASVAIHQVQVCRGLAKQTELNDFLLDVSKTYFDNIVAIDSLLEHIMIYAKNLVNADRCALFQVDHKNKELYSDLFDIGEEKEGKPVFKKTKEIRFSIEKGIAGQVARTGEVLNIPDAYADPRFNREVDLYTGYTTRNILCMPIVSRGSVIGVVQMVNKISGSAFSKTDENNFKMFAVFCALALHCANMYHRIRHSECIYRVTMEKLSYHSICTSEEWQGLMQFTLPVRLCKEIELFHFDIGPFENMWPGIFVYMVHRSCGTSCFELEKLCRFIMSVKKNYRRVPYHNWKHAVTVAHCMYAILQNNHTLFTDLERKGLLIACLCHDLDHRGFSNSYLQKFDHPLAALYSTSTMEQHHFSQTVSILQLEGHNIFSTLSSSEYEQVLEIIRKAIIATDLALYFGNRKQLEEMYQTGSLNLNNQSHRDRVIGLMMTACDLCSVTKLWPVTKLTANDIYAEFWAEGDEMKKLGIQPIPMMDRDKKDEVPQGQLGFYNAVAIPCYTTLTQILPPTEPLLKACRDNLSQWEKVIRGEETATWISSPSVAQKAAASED
Sequence of hERG channel (Q12809 whole entry): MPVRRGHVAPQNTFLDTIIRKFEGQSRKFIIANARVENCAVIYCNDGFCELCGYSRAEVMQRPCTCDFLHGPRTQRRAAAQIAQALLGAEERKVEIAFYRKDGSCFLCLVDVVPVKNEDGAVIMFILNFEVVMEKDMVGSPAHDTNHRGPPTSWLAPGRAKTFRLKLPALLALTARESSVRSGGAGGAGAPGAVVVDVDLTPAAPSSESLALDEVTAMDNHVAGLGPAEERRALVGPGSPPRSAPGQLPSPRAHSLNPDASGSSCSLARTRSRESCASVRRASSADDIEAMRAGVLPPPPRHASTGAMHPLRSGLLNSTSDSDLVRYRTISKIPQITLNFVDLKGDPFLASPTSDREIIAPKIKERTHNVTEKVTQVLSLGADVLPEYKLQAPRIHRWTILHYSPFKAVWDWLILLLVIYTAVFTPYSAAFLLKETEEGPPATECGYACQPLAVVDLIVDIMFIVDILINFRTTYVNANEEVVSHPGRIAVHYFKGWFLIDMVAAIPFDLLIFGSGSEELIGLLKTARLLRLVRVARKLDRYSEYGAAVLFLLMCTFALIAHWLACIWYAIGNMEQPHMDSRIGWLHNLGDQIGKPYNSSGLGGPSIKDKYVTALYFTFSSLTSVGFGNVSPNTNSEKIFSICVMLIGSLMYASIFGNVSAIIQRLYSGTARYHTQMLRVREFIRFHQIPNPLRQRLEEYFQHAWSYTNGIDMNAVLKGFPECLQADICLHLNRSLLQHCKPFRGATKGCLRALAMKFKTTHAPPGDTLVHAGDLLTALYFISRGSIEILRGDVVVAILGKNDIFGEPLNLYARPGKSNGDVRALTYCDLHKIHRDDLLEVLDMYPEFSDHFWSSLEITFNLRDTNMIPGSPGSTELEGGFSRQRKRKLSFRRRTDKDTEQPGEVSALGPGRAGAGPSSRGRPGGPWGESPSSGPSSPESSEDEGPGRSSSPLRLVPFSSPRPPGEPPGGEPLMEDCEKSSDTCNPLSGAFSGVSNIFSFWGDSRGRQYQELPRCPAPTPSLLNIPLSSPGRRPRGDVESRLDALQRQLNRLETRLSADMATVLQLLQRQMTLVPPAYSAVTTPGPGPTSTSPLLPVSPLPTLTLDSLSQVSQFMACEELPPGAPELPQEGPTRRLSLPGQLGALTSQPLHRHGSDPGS
Sequence of PDE2A (O00408 whole entry, species assumed): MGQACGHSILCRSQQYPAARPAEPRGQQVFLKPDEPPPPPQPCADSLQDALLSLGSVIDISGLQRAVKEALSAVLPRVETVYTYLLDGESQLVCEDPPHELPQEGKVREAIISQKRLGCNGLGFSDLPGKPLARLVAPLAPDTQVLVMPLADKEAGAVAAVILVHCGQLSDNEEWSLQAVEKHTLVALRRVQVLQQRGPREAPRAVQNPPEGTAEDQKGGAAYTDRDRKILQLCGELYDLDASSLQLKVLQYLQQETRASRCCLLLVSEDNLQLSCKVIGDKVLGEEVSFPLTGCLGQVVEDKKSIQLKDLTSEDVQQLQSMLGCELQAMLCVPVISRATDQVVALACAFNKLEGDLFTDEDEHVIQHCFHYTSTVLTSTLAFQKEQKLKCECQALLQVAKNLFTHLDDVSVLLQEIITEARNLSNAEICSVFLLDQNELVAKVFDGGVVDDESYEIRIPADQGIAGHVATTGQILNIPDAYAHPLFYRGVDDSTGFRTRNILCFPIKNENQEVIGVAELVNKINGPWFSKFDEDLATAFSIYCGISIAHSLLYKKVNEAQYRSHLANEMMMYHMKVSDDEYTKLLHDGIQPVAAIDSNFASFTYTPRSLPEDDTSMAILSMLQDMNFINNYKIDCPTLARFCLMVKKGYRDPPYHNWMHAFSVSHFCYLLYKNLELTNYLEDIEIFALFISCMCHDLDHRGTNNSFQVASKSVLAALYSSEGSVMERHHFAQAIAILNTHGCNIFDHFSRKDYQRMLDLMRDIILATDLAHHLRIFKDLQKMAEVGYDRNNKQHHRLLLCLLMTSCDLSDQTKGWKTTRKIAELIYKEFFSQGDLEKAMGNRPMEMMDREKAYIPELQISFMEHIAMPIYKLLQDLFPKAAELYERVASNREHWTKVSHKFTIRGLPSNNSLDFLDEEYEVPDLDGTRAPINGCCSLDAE
Text for PDE10: (§1) c) Phosphodiesterase (PDE) 2A and 10 Assay with Fluorescent Substrate
(§2) The PDE reaction cleaves cAMP to AMP. The IMAP system (Molecular Device) using fluorescence polarization (FP) as detection principle was used to measure enzyme activity. A fluorescent labeled cAMP was used as substrate for the reaction, generating a labeled AMP. The fluorescent AMP binds specifically to the large M(III)-based nano-particles which reduces the rotational speed of the substrate and thus increases its polarization.
(§3) The inhibition of PDE 2A or 10 enzyme activity was assessed using IMAP-Phosphodiesterase-cAMP fluorescence labeled substrate (Molecular Devices, Order No. R7506), IMAP TR-FRET screening express (Molecular Devices, Order No. R8160, the TR-FRET component will not be used) and PDE 2A or PDE10 protein expressed upon baculovirus infection in SF9 cells. The cells were incubated after infection for ˜3 days and protein production was confirmed by Western Blot. The cells were collected by centrifugation and the pellet frozen in liquid nitrogen before it was resuspended in PBS containing 1% Triton X-100 and protease inhibitors.
(§4) All reactions were performed in 384 well plates, Perkin Elmer black optiplates and IMAP reaction buffer with 0.1% Tween20 (kit component)
(§5) Compounds were serial diluted in DMSO. With an intermediate dilution step with reaction buffer DMSO concentration was reduced to achieve 1% DMSO in the assay reaction. Setup of the assay started with 10 μl enzyme (˜10 ng/well, depending on prep. batch), 5 μl compound, reaction was started by addition of 5 μl labeled cAMP (30 nM, final concentration), immediately mixed for 15 seconds on a Eppendorf mixmate (2000 rpm) followed by an incubation at room temperature for 90 minutes in the dark. Reaction is stopped by adding of 60 μl binding buffer for FP/cAMP (kit component).
(§6) Each assay plate contained wells with vehicle controls (1% DMSO) for the measurement of non-inhibited reaction (=100% control) and wells without enzyme as 0% controls.
Text for PDE2A: as §1, §2, §3, §4, §5, §6

As for `Cc1ccc(C2(O)CCOCC2O)cc1-c1nnc2c(C)nc3ccc(C4CC4)nc3n12` (racemic) [Example 104], the IC50 on PDE2A was determined as 36 nM; on PDE10 it was 7720 nM. The “Half-life - t½” value in series [1] worked out at 2.17 h.
`Cc1nc2cccnc2n2c(-c3cc(OC4COCC4O)ccc3Cl)nnc12` (single isomer, unassigned) [Example 55a] yielded an IC50 against PDE10 of 2440 nM. In series [1], the “Half-life - t½” value was determined as 2.17 h.
Regarding `Cc1nc2cccnc2n2c(-c3cc(OC4COCCC4O)ccc3Cl)nnc12` (single isomer, unassigned) [Example 58], the results for the IC50 on PDE2A and on PDE10 were 143 nM and 663 nM, respectively. In series [1], the “Half-life - t½” value came out at 2.17 h.
In the case of `Cc1nc2cccnc2n2c(-c3cc(C4(O)CCOC4)ccc3Cl)nnc12` (single isomer, unassigned) [Example 99], the IC50 on PDE2A worked out at 125 nM; on PDE10 it was 1510 nM. The “Half-life - t½” value in series [1] amounted to 2.17 h.
On to `Cc1ccc(C2(O)CCOCC2O)cc1-c1nnc2c(C)nc3ccc(C4CC4)nc3n12` (single isomer, unassigned) [Example 104a], for which the IC50 on PDE2A worked out at 40 nM; against PDE10, 3230 nM. For the same compound, in series [1], the “Half-life - t½” value is 2.17 h.
In the same order, the values of `Cc1ccc(C2(O)CCOCC2O)cc1-c1nnc2c(C)nc3ccc(C4CC4)nc3n12` (single isomer, unassigned) [Example 104b] are 30 nM, 9760 nM and 2.17 h.
Regarding `Cc1ccc2nc(C)c3nnc(-c4cc(OCCO)ccc4Cl)n3c2n1` [Example 28], the IC50 on hERG channel was over 10000 nM.
As for `Cc1nc2ccc(C3CC3)nc2n2c(-c3cc(OC4CCOCC4)ccc3Cl)nnc12` [Example 32a], the figures for the IC50 at PDE10 and against hERG channel were 7390 nM and over 10000 nM, respectively.
Consider `Cc1nc2cccnc2n2c(-c3cc(OCC(C)(C)O)ccc3Cl)nnc12` [Example 44], for which the IC50 at PDE2A was found to be 156 nM; on PDE10 it was 6040 nM. In addition, the “Half-life - t½” value in series [1] stood at 2.17 h. The concentration at 0.5 h in series [2] (brain, read-out: conc brain) turned out to be 670 nM; in series [2] (plasma, read-out: conc plasma), 2190 nM; in series [2] (read-out: conc CSF) it was 228 nM. Besides, the Kp at 0.5 h in series [2] (setting [3]) is 0.31; in series [2] (read-out: c(CSF)/c(plasma)), 0.1.
Turning to `Cc1ccc2nc(C)c3nnc(-c4cc(OCC(C)(C)O)ccc4Cl)n3c2n1` [Example 46], the IC50 on PDE2A was 50 nM. The “Half-life - t½” value in series [1] amounted to 2.17 h.
Consider `Cc1ccc(OCC2(O)CCC2)cc1-c1nnc2c(C)nc3cccnc3n12` [Example 50], for which the IC50 on PDE2A came to 194 nM; on PDE10, 7120 nM. The “Half-life - t½” value in series [1] was 2.17 h.
In the case of `Cc1ccc(OCC(C)(C)O)cc1-c1nnc2c(C)nc3ccc(C(C)C)nc3n12` [Example 51], the IC50 at PDE2A was 9 nM. In addition, the “Half-life - t½” value in series [1] amounted to 2.17 h.
On to `Cc1nc2ccc(C(C)C)nc2n2c(-c3cc(OCC(C)(C)O)ccc3F)nnc12` [Example 52], for which the IC50 was 11 nM at PDE2A and 1200 nM against PDE10. In addition, the “Half-life - t½” value in series [1] is 2.17 h.
In the same order, the values of `Cc1nc2cc(C(C)C)cnc2n2c(-c3cc(OCC(C)(C)O)ccc3Cl)nnc12` [Example 54] are 58 nM, 798 nM and 2.17 h.
As to `Cc1ccc2nc(C)c3nnc(-c4cc(C(O)C(C)C)ccc4Cl)n3c2n1` (stereo not shown) [Example 59], the IC50 at PDE2A is 8 nM; at PDE10, 936 nM. The half-life at 1 μM in series [1] is 0.817 h.
On to `CCC(O)c1ccc(Cl)c(-c2nnc3c(C)nc4ccc(C)nc4n23)c1` (stereo not shown) [Example 62], for which the IC50 on PDE2A was 11 nM. Besides, in series [1], the “Half-life - t½” value stood at 2.17 h.
Regarding `Cc1ccc2nc(C)c3nnc(-c4cc(C(C)O)ccc4Cl)n3c2n1` (stereo not shown) [Example 63], the IC50 stood at 60 nM at PDE2A and 1710 nM at PDE10. In addition, in series [1], the “Half-life - t½” value stood at 2.17 h.
As for `Cc1nc2ccc(C3CC3)nc2n2c(-c3cc(CCC(C)(C)O)ccc3F)nnc12` [Example 66], the IC50 was 3 nM at PDE2A, 674 nM on PDE10 and over 10000 nM on hERG channel.
For the compound `Cc1ccc(CCC(C)(C)O)cc1-c1nnc2c(C)nc3cccnc3n12` [Example 67], the IC50 on PDE2A was determined as 175 nM; against PDE10 it was 3900 nM. Besides, in series [1], the “Half-life - t½” value turned out to be 2.17 h.
With `Cc1ccc(CCC(C)(C)O)cc1-c1nnc2c(C)nc3ccc(C4CC4)nc3n12` [Example 68], the IC50 on PDE2A is 2 nM; against PDE10, 1010 nM; against hERG channel, 8300 nM.
On to `Cc1nc2cccnc2n2c(-c3cc(C(C)(C)O)ccc3Cl)nnc12` [Example 70], for which the IC50 turned out to be 163 nM on PDE2A and 8620 nM at PDE10. The “Half-life - t½” value in series [1] was determined as 2.17 h. Moreover, the concentration at 2 h came out at 695 nM in series [2] (brain, read-out: conc brain); 2380 nM in series [2] (plasma, read-out: conc plasma); 276 nM in series [2] (read-out: conc CSF). Further, the Kp at 2 h in series [2] (setting [3]) is 0.29; in series [2] (read-out: c(CSF)/c(plasma)), 0.12.
Turning to `Cc1ccc2nc(C)c3nnc(-c4cc(C(C)(C)O)ccc4Cl)n3c2n1` [Example 71], the IC50 at PDE2A stood at 109 nM. The “Half-life - t½” value in series [1] came out at 2.17 h.
In the same order, the values of `Cc1nc2ccc(C3(C)CC3)nc2n2c(-c3cc(C(C)(C)O)ccc3F)nnc12` [Example 72] are 32 nM and 2.17 h.
Regarding `Cc1ccc(C2(O)CCC2)cc1-c1nnc2c(C)nc3cccnc3n12` [Example 73], the IC50 at PDE2A amounted to 189 nM. Further, the “Half-life - t½” value in series [1] is 2.17 h.
As to `Cc1nc2ccc(C3CC3)nc2n2c(-c3cc(CC(C)(C)O)ccc3F)nnc12` [Example 80], the IC50 at PDE2A was 10 nM; against PDE10, 5410 nM; at hERG channel, over 10000 nM.
In the same order, the values of `Cc1nc2ccc(C3CC3)nc2n2c(-c3cc(CC(C)(C)O)ccc3Cl)nnc12` [Example 83] are 4 nM, 8820 nM and over 10000 nM.
In the same order, the values of `Cc1nc2ccc(C3CC3)nc2n2c(-c3cc(C4(O)CCC4)ccc3F)nnc12` [Example 84] are 6 nM, 565 nM and 6300 nM.
In the case of `Cc1nc2ccc(C3CC3)nc2n2c(-c3cc(C4(O)CCC4)ccc3Cl)nnc12` [Example 88], the IC50 on PDE2A is 1 nM; on hERG channel, over 10000 nM.
`Cc1ccc2nc(C)c3nnc(-c4cc(C5(O)CCC5)ccc4Cl)n3c2n1` [Example 89] came in with an IC50 at PDE10 of 187 nM. Further, the “Half-life - t½” value in series [1] came out at 2.17 h.
As for `Cc1ccc(C(C)(C)CO)cc1-c1nnc2c(C)nc3ccc(C4CC4)nc3n12` [Example 100], the IC50 on PDE2A was determined as 17 nM; on PDE10, 3860 nM. The half-life at 1 μM in series [1] was found to be 0.2 h.
Turning to `Cc1ccc2nc(C)c3nnc(-c4cc(C5(O)CCC5)ccc4C)n3c2n1` [Example 102], the IC50 on PDE2A was 103 nM; against PDE10, 2260 nM. The “Half-life - t½” value in series [1] stood at 2.17 h.
